Measured values published in patent US20240024338A1, “CARBIDOPA AND L-DOPA PRODRUGS AND METHODS OF USE” (AbbVie Inc., priority 2016, published 2024).

What was measured:
[1] = In vitro bioconversion study (skin homogenates), rat; settings: rat skin homogenate 3 mg/mL, prodrug 2.5 μg/mL, 37° C.
[2] = In vitro bioconversion study, kidney S9 fraction, rat; assay type: in vitro ADME; settings: rat kidney S9 fraction 1 mg/mL, prodrug 2.5 μg/mL, 37° C.
Method: (§2) The in vitro bioconversion of the L-dopa phosphate prodrugs to L-dopa and the carbidopa phosphate prodrugs to carbidopa was evaluated in several studies. In brief, the L-dopa and carbidopa phosphate prodrugs (2.5 μg/mL) were incubated with tissue homogenate or fractions from rats, mini-pigs, or human, including blood, skin homogenate (3 mg/mL), liver microsomes (1 mg/mL), liver S9 fraction (1 mg/mL), kidney S9 fraction (1 mg/mL), and intestine S9 fractions (1 mg/mL). The reaction mixtures were incubated at 37° C. for 5 to 6 time points within 1 to 2 hours. At the end of each time point, the reaction mixtures were quenched by 2 to 3 volumes of 5% trichloroacetic acid in water. After quenching, the mixtures were centrifuged at 3000 rpm for 20 minutes, and the supernatants were analyzed by LC-MS for quantitation of the prodrug, L-dopa or carbidopa. The in vitro bioconversion was assessed by monitoring both time-dependent depletion of the prodrug and the formation of the corresponding L-dopa or carbidopa.

[3] = In vitro bioconversion study (intestinal S9 fractions), rat; assay type: in vitro ADME; settings: rat intestinal S9 fraction 1 mg/mL, prodrug 2.5 μg/mL, 37° C.
Source text: (§1) The t1/2 appeared to be shorter in human intestinal S9 than in rat intestinal S9.

[4] = 1-Day stability study, diphosphate combination solution; assay type: physicochemical; settings: combination solution: L-dopa 3′,4′-diphosphate 35 mg/mL + carbidopa 3′,4′-diphosphate 8.7 mg/mL, pH 6.2, room temperature, nitrogen purged
Method: In addition, a solution combining the diphosphates of each compound (L-dopa 3′, 4′-diphosphate at 35 mg/mL and carbidopa 3′, 4′-diphosphate at 8.7 mg/mL) was monitored over one day at room temperature. This sample was purged with nitrogen to remove oxygen.

[5] = 1-Day stability study of prodrugs in aqueous solution; assay type: physicochemical; settings: aqueous solution 80 μg/mL, ambient storage, pH 7.0
Method: The L-dopa phosphate prodrugs and the carbidopa phosphate prodrugs were evaluated in a stability study.

[6] = In vitro bioconversion study, human liver microsomes; assay type: in vitro ADME; settings: human liver microsomes 1 mg/mL, prodrug 2.5 μg/mL, 37° C.
Method: as §2

[7] = In vitro bioconversion study (skin homogenates), mini-pig; settings: mini-pig skin homogenate 3 mg/mL, prodrug 2.5 μg/mL, 37° C.
[8] = In vitro bioconversion study, liver S9 fraction, mini-pig; assay type: in vitro ADME; settings: mini-pig liver S9 fraction 1 mg/mL, prodrug 2.5 μg/mL, 37° C.
Method: as §2

[9] = In vitro bioconversion study (blood), rat; settings: prodrug 2.5 μg/mL, 37° C.
Method: The in vitro bioconversion of the L-dopa phosphate prodrugs to L-dopa and the carbidopa phosphate prodrugs to carbidopa was evaluated in several studies. […] The reaction mixtures were incubated at 37° C. for 5 to 6 time points within 1 to 2 hours. At the end of each time point, the reaction mixtures were quenched by 2 to 3 volumes of 5% trichloroacetic acid in water. After quenching, the mixtures were centrifuged at 3000 rpm for 20 minutes, and the supernatants were analyzed by LC-MS for quantitation of the prodrug, L-dopa or carbidopa. The in vitro bioconversion was assessed by monitoring both time-dependent depletion of the prodrug and the formation of the corresponding L-dopa or carbidopa.

[10] = In vitro bioconversion study, kidney S9 fraction, human; assay type: in vitro ADME; settings: human kidney S9 fraction 1 mg/mL, prodrug 2.5 μg/mL, 37° C.
Method: as §2

rats = test: Local tolerability in rats, single SC bolus dose; assay type: in vivo; settings: concentrations up to 125 mg/mL
[11] = In vitro bioconversion study, liver S9 fraction, human; assay type: in vitro ADME; settings: human liver S9 fraction 1 mg/mL, prodrug 2.5 μg/mL, 37° C.
Method: as §2

[12] = In vitro bioconversion study (blood), mini-pig; assay type: in vitro ADME; settings: prodrug 2.5 μg/mL, 37° C.
Method: as §2

[13] = In vitro bioconversion study, liver S9 fraction, rat; assay type: in vitro ADME; settings: rat liver S9 fraction 1 mg/mL, prodrug 2.5 μg/mL, 37° C.
Method: as §2

[14] = Phosphate prodrug solubility study in water; assay type: physicochemical; settings: water, ambient, visual assessment, pH 5.5, Amorphous
Method: The L-dopa phosphate prodrugs and the carbidopa phosphate prodrugs were evaluated in a solubility study. The solubility values of the phosphate prodrugs in water under ambient conditions were determined by visual assessment. Table 13-A reports the results of the study, including the measured values for L-dopa and carbidopa.

[15] = In vitro bioconversion study (skin homogenates), human; settings: human skin homogenate 3 mg/mL, prodrug 2.5 μg/mL, 37° C.
[16] = In vitro bioconversion study (blood), human; assay type: in vitro ADME; settings: prodrug 2.5 μg/mL, 37° C.
Method: as §2

[17] = In vitro bioconversion study (intestinal S9 fractions), human; assay type: in vitro ADME; settings: human intestinal S9 fraction 1 mg/mL, prodrug 2.5 μg/mL, 37° C.
Source text: as §1

[18] = listed as diphosphate prodrug of L-dopa

SMILES: N[C@@H](Cc1ccc(OP(=O)(O)O)c(OP(=O)(O)O)c1)C(=O)O [L-dopa 3′,4′-diphosphate]
- L-Dopa or Carbidopa Formation [1]: No
- T1/2 [1]: stable
- stability and formation of L-dopa or carbidopa [2]: stable without formation of L-dopa or carbidopa observed
- L-Dopa or Carbidopa Formation [3]: Yes
- T1/2 [3, 18]: rapidly dephosphorylated
- % Remaining After One Day [4]: >99%
- % Remaining After One Day [5]: >99%
- stability and formation of L-dopa or carbidopa [6]: stable without formation of L-dopa or carbidopa observed
- L-Dopa or Carbidopa Formation [7]: No
- T1/2 [7]: stable
- stability and formation of L-dopa or carbidopa [8]: stable without formation of L-dopa or carbidopa observed
- L-Dopa or Carbidopa Formation [9]: Yes
- T1/2 [9]: 6 min
- stability and formation of L-dopa or carbidopa [10]: stable without formation of L-dopa or carbidopa observed
- clinical signs or microscopic findings of local intolerance (rats): no adverse clinical signs or microscopic findings indicative of local intolerance
- stability and formation of L-dopa or carbidopa [11]: stable without formation of L-dopa or carbidopa observed
- L-Dopa or Carbidopa Formation [12]: Yes
- T1/2 [12]: 2.08 h
- stability and formation of L-dopa or carbidopa [13]: stable without formation of L-dopa or carbidopa observed
- Solubility [14]: >330 mg/mL
- L-Dopa or Carbidopa Formation [15]: No
- T1/2 [15]: stable
- L-Dopa or Carbidopa Formation [16]: Yes
- T1/2 [16]: 2.3 h
- L-Dopa or Carbidopa Formation [17]: Yes
- T1/2 [17, 18]: rapidly dephosphorylated
